Test results taken from the NIST ThermoML archive (doi:10.1021/je300632p).

Experiment: xn = mol fraction of the nth substance listed
Conditions: 101 kPa, Liquid; for viscosity: Falling or rolling sphere viscometry; for mass density: Vibrating tube method

CCCO [propan-1-ol] + CCO
Conditions | mass density, 293.15 K [kg/m3] | mass density, 298.15 K [kg/m3] | mass density, 303.15 K [kg/m3] | mass density, 308.15 K [kg/m3] | viscosity, 293.15 K [mPa·s] | viscosity, 298.15 K [mPa·s] | viscosity, 303.15 K [mPa·s] | viscosity, 308.15 K [mPa·s]
x2 = 0 | 803.58 | 799.59 | 795.58 | 791.53 | 2.195 | 1.902 | 1.694 | 1.511
x2 = 0.1 | 802.08 | 798.08 | 794.05 | 789.98 | 2.034 | 1.81 | 1.615 | 1.446
x2 = 0.2 | 800.86 | 796.82 | 792.77 | 788.8 | 1.92 | 1.713 | 1.533 | 1.376
x2 = 0.301 | 799.68 | 795.65 | 791.57 | 787.45 | 1.825 | 1.632 | 1.464 | 1.317
x2 = 0.4 | 798.4 | 794.33 | 790.22 | 786.08 | 1.684 | 1.511 | 1.359 | 1.225
x2 = 0.5 | 797.31 | 793.22 | 789.08 | 784.92 | 1.586 | 1.425 | 1.284 | 1.16
x2 = 0.599 | 795.87 | 791.75 | 787.59 | 783.4 | 1.505 | 1.355 | 1.225 | 1.11
x2 = 0.701 | 794.36 | 790.21 | 786.02 | 781.8 | 1.408 | 1.272 | 1.152 | 1.046
x2 = 0.8 | 792.88 | 788.69 | 784.47 | 780.21 | 1.324 | 1.198 | 1.088 | 0.989
x2 = 0.9 | 791.44 | 787.22 | 782.96 | 778.67 | 1.242 | 1.127 | 1.024 | 0.933
